“Also recorded” adds a separate entry of the source. Where two headings read alike, the source gives them in different places.
How the values were obtained:
S. epidermidis [1] = assay: Staining of living and dead bacteria on decontaminated titanium surfaces, confocal microscope; assay type: cell-based; conditions: submerged in sanitizing solution 5 minutes on slow shaker
Description: Titanium surfaces contaminated with S. epidermidis bacteria and grown to biofilm in BHI broth was removed from growth medium and submerged in sanitizing solution for 5 minutes on a slow shaker. Discs were sanitized with A) saline (Negative control), B) Chlorhexidine 0.2% w/v, or C) H2O2 3% v/v+f-127 pluronic Acid 5% w/v. After cleaning the surfaces were stained with fluorescent dyes, green for living microbes and red for dead microbes. […] Surfaces were visualized in a confocal microscope after cleaning and staining (FIG. 4).

S. epidermidis [2] = assay: Regrowth of luciferase-harbouring bacteria on sanitized titanium surfaces, fluorometer; assay type: cell-based; conditions: 5 minutes in sanitizing solution; for Time until regrowth of the biofilm after cleaning: then BHI medium at 37 centigrade, hourly reading
Description: Regrowth of S. epidermidis after sanitizing a contaminated titanium surface Regrowth of S. epidermidis bacteria harbouring the luciferase gene making them fluorescent, on sanitized titanium surfaces. Surfaces was first contaminated with bacteria and incubated in BHI broth until the surfaces were completely covered in biofilm. The titanium discs were then submerged in sanitizing solution and left on a slow shaker for 5 minutes. After sanitizing the discs were rinsed in a large volume of sterile water, then covered by BHI medium again and incubated at 37 centigrade. At hourly intervals the discs were placed in a fluorometer to measure regrowth of bacteria by amount of fluorescent as compared to an untreated calibrated control and a sterile disc.

[3] = test system: non-spore forming bacteria; conditions: in less than 30 seconds, in the laboratory and on human skin; cited from earlier work
[4] = cited from earlier work

Row | Compound | Killing of microbes (green living / red dead staining) (S. epidermidis [1]) | Removal of biofilm/contamination from titanium surface (S. epidermidis [1]) | Biofilm remaining on the surface (S. epidermidis [2]) | Killing of bacteria (S. epidermidis [2]) | Time until regrowth of the biofilm after cleaning (S. epidermidis [2]) | Non-spore forming bacteria killed [3] [%] | Effect on wound healing ([4]; 0.03% v/v solution, only if not applied repeatedly) | Effect on wound healing ([4]; 0.5% v/v solution)
1 | N=C(NCCCCCCNC(=N)NC(=N)Nc1ccc(Cl)cc1)NC(=N)Nc1ccc(Cl)cc1 [Chlorhexidine 0.2% w/v, Chlorhexidine] | killed all microbes; also recorded: killed all bacteria | left the dead cells to contaminate the surface; also recorded: left them to contaminate the surface | the dead biofilm stuck and remained on the surface | killed all bacteria | no regrowth observed |  |  | 
2 | CC(C)O [Isopropyl alcohol] |  |  |  |  |  | ≥ 99.99 |  | 
3 | OO [hydrogen peroxide, Hydrogen peroxide] |  |  |  |  | about 13 hours |  | may induce healing | impede healing

Source: patent US20230020320A1, “Liquid Composition for Cleaning, Sanitizing and/or Disinfecting” (CORTICALIS AS, priority 2020, published 2023)
